According to article PMC11169275, “MAL2 reprograms lipid metabolism in intrahepatic cholangiocarcinoma via EGFR/SREBP-1 pathway based on single-cell RNA sequencing” (Cell Death & Disease, 2024):
pKd: −log10 of the molar value.

Target: T1, MAL2 (GFP-MAL2) (Homo sapiens, UniProt Q969L2)
T1 construct: GFP fusion (GFP-MAL2) transiently expressed in HEK293T, diluted cell lysate, not purified
Experiment: microscale thermophoresis, GFP-MAL2 in HEK293T lysate
Format: binding
Description: microscale thermophoresis, GFP-MAL2 in HEK293T lysate on MAL2 (GFP-MAL2) | only sarizotan could assemble with MAL2, with a dissociation constant (Kd)

T1 sequence (Q969L2 whole entry, the tested form may be a part): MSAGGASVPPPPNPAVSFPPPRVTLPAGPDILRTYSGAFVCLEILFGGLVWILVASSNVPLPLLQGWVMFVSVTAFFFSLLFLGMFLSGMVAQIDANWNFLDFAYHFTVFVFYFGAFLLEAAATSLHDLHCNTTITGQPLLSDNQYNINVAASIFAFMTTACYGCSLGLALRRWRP

pKd: 4.44
SMILES: Fc1ccc(-c2cncc(CNC[C@H]3CCc4ccccc4O3)c2)cc1 [sarizotan]
